This passage reports TGI results from PubChem BioAssay (NCI).

Test systems include A498 renal; DU-145 prostate; HT29 colon; K-562 leukemia; MOLT-4 leukemia; NCI-H522 lung; NCI/ADR-RES ovarian; OVCAR-3 ovarian; OVCAR-4 ovarian; PC-3 prostate; SK-MEL-28 melanoma; SK-OV-3 ovarian; SNB-19 CNS; SR leukemia; SW-620 colon; T-47D breast; UACC-257 melanoma; CCRF-CEM leukemia; HL-60(TB) leukemia.
Common to all, as to assay: NCI tumour cell line growth inhibition, 48 h

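Growth conditions: 96-well plates. Treatment: test compound, 48 hours, 5 concentrations. Analysis: linear interpolation between bracketing concentrations; unreached endpoints set to highest concentration. TGI: total growth inhibition.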 Bounds are passed on as bounds.

As for `COC1=C2CC(C)CC(OC)C(OC(=O)CN)[C@H](C)/C=C(\C)C(OC(N)=O)C(OC)/C=C\C=C(/C)C(=O)NC(=CC1=O)C2=O` (some centres undefined), the TGI with A498 renal is 24.7 µM; in the assay with DU-145 prostate, 16.4 µM; in the assay on HT29 colon, 11.2 µM; with K-562 leukemia it was greater than 100 µM; in the assay with MOLT-4 leukemia, 1.57 µM; with NCI-H522 lung it was 1.15 µM. In addition, the TGI with NCI/ADR-RES ovarian was 27.8 µM; in the assay with OVCAR-3 ovarian, 2.98 µM; in the assay with OVCAR-4 ovarian, 8.38 µM; in the assay with PC-3 prostate, 13.3 µM; in the assay with SK-MEL-28 melanoma it was 1.75 µM; in the assay on SK-OV-3 ovarian, 16.7 µM. The TGI in the assay with SNB-19 CNS came to 20.7 µM; with SR leukemia it was 1.98 µM; in the assay with SW-620 colon it was 1.25 µM; in the assay on T-47D breast, 1.32 µM; in the assay on UACC-257 melanoma it was 1.02 µM.
Regarding `O=C(CC(C(=O)c1ccsc1)c1ccsc1)c1ccsc1` (centres undefined), the TGI in the assay with A498 renal, with CCRF-CEM leukemia, in the assay with DU-145 prostate, in the assay with HL-60(TB) leukemia, in the assay on HT29 colon and in the assay on K-562 leukemia was greater than 100 µM throughout. The TGI in the assay with MOLT-4 leukemia, in the assay on NCI/ADR-RES ovarian, with OVCAR-4 ovarian, with PC-3 prostate, in the assay with SK-MEL-28 melanoma and with SK-OV-3 ovarian was greater than 100 µM throughout. The TGI in the assay with SNB-19 CNS, in the assay with SR leukemia, in the assay with SW-620 colon, in the assay with T-47D breast and with UACC-257 melanoma was greater than 100 µM in each case.
Turning to `CCc1c(CNC2=NCCN2)c(CC)c(CNC2=NCCN2)c(CC)c1CNC1=NCCN1`, the TGI in the assay with A498 renal, in the assay with CCRF-CEM leukemia, in the assay on DU-145 prostate, in the assay with HT29 colon, in the assay on K-562 leukemia and in the assay with MOLT-4 leukemia was greater than 100 µM throughout. The TGI in the assay on NCI-H522 lung, in the assay with NCI/ADR-RES ovarian, with OVCAR-3 ovarian, in the assay with OVCAR-4 ovarian, with PC-3 prostate and in the assay with SK-MEL-28 melanoma was greater than 100 µM each time. In addition, the TGI in the assay with SK-OV-3 ovarian, in the assay with SNB-19 CNS, with SR leukemia, with SW-620 colon, in the assay on T-47D breast and in the assay with UACC-257 melanoma was greater than 100 µM each time.
As to `COc1ccc(N=Nc2ccc3oc(=O)c(C(=O)Nc4ccccc4C)cc3c2)cc1`, the TGI in the assay on A498 renal, in the assay with DU-145 prostate, in the assay on HT29 colon, in the assay on MOLT-4 leukemia, with NCI-H522 lung and in the assay on NCI/ADR-RES ovarian was greater than 10 µM throughout. Also, the TGI with OVCAR-3 ovarian, in the assay on OVCAR-4 ovarian, with PC-3 prostate, in the assay with SK-MEL-28 melanoma, with SK-OV-3 ovarian and in the assay on SR leukemia was greater than 10 µM in each case. The TGI with SW-620 colon, in the assay with T-47D breast and with UACC-257 melanoma was greater than 10 µM each time.
As for `O=c1oc2ccccc2c(O)c1C(c1ccc(-c2ccccc2)cc1)c1c(O)c2ccccc2oc1=O`, the TGI was greater than 100 µM in the assay with A498 renal; 93.8 µM in the assay with CCRF-CEM leukemia; greater than 100 µM in the assay with DU-145 prostate; 51.7 µM in the assay with HL-60(TB) leukemia; 38.3 µM in the assay with HT29 colon; greater than 100 µM in the assay on K-562 leukemia. Further, the TGI in the assay on MOLT-4 leukemia was greater than 100 µM; with NCI-H522 lung it was 66.7 µM; in the assay with NCI/ADR-RES ovarian, 58.6 µM; in the assay on OVCAR-3 ovarian, 58.7 µM; with OVCAR-4 ovarian, greater than 100 µM; with PC-3 prostate it was 56.4 µM. Moreover, the TGI in the assay with SK-MEL-28 melanoma was 32 µM; in the assay on SNB-19 CNS, greater than 100 µM; in the assay with SW-620 colon, 33.2 µM; in the assay on T-47D breast, greater than 100 µM; in the assay with UACC-257 melanoma it was greater than 100 µM.
With `C=CCOCn1cc(F)c(=O)[nH]c1=O`, the TGI in the assay on A498 renal, in the assay with CCRF-CEM leukemia, in the assay with DU-145 prostate, with HL-60(TB) leukemia, in the assay with HT29 colon and in the assay with K-562 leukemia was greater than 100 µM in each case. Also, the TGI in the assay with MOLT-4 leukemia, in the assay on NCI-H522 lung, with PC-3 prostate, in the assay with SK-MEL-28 melanoma, in the assay on SK-OV-3 ovarian and in the assay with SNB-19 CNS was greater than 100 µM in each case. Moreover, the TGI in the assay on SR leukemia, in the assay on SW-620 colon, in the assay on T-47D breast and in the assay on UACC-257 melanoma was greater than 100 µM each time.
With `CN(C)C(=S)C(Cl)(c1ccccc1)c1ccccc1`, the TGI is greater than 100 µM in the assay with A498 renal; greater than 100 µM with CCRF-CEM leukemia; greater than 100 µM in the assay with DU-145 prostate; 71.6 µM in the assay on HL-60(TB) leukemia; 77.3 µM in the assay with HT29 colon; greater than 100 µM with K-562 leukemia. Also, the TGI in the assay with MOLT-4 leukemia, in the assay on NCI-H522 lung, in the assay on NCI/ADR-RES ovarian, in the assay with OVCAR-3 ovarian, in the assay with OVCAR-4 ovarian and in the assay with PC-3 prostate was greater than 100 µM in each case. The TGI in the assay on SK-MEL-28 melanoma was greater than 100 µM; with SK-OV-3 ovarian, greater than 100 µM; with SNB-19 CNS it was greater than 100 µM; with SW-620 colon, greater than 100 µM; in the assay on T-47D breast, 61.7 µM; in the assay with UACC-257 melanoma, greater than 100 µM.
Regarding `c1ccc(-c2c(-c3cccs3)[nH]c(-c3cccs3)c2-c2ccccn2)nc1`, the TGI was 78.2 µM with A498 renal; 52.5 µM in the assay with CCRF-CEM leukemia; greater than 100 µM with DU-145 prostate; greater than 100 µM in the assay with HL-60(TB) leukemia; 30.3 µM with HT29 colon; 37 µM in the assay on K-562 leukemia. Further, the TGI in the assay with MOLT-4 leukemia is 38.3 µM; in the assay with NCI/ADR-RES ovarian, 64.8 µM; in the assay with OVCAR-3 ovarian, 58.3 µM; with PC-3 prostate, 30.8 µM; in the assay on SK-OV-3 ovarian, 51.3 µM; in the assay with SNB-19 CNS, greater than 100 µM. Further, the TGI with SR leukemia was 81.1 µM; in the assay with SW-620 colon it was 68.8 µM; in the assay with T-47D breast it was 94.9 µM; in the assay on UACC-257 melanoma it was 43.6 µM.
